According to PubChem BioAssay AID330 (DTP/NCI, 2004):
“And” between values parts separate entries of the source, which are not always exact repeats. Equal entries are not always repeated. Inconclusive results and toxic doses are left out. How the source made its calls: active means survival T/C of 150% or more; inactive means T/C below 125% in these data.

Test system: P388 leukemia ip, CD2F1 mice, survival T/C
Assay: NCI In Vivo Anticancer Drug Screen. Data for tumor model P388 Leukemia (intraperitoneal) in CD2F1 (CDF1) mice
Settings: endpoint: median survival time, higher = longer survival
Method in brief: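 Mice carrying the transplanted tumor received test compound or vehicle. Survival was recorded in each group, and the value is the treated-group measurement divided by that of the vehicle-treated control group.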

[1] = dose: 50.0 mg/kg/injection, schedule: Q01DX009 (ip), vehicle: Klucel (hydroxypropylcellulose) (HPC)
[2] = dose: 100.0 mg/kg/injection, schedule: Q01DX009 (ip), vehicle: Klucel (hydroxypropylcellulose) (HPC)
[3] = dose: 200.0 mg/kg/injection, schedule: Q01DX009 (ip), vehicle: Klucel (hydroxypropylcellulose) (HPC)
[4] = dose: 50.0 mg/kg/injection, schedule: Q01DX009 (ip), vehicle: saline
[5] = dose: 60.0 mg/kg/injection, schedule: Q01DX005 (ip), vehicle: saline with Tween-80
[6] = dose: 120.0 mg/kg/injection, schedule: Q01DX005 (ip), vehicle: saline with Tween-80
[7] = dose: 240.0 mg/kg/injection, schedule: Q01DX005 (ip), vehicle: saline with Tween-80
[8] = dose: 50.0 mg/kg/injection, schedule: Q01DX005 (ip), vehicle: saline with Tween-80
[9] = dose: 100.0 mg/kg/injection, schedule: Q01DX005 (ip), vehicle: saline with Tween-80
[10] = dose: 200.0 mg/kg/injection, schedule: Q01DX005 (ip), vehicle: saline with Tween-80
[11] = dose: 50.0 mg/kg/injection, schedule: Q01DX005 (ip), vehicle: Klucel (hydroxypropylcellulose) (HPC)
[12] = dose: 100.0 mg/kg/injection, schedule: Q01DX005 (ip), vehicle: Klucel (hydroxypropylcellulose) (HPC)
[13] = dose: 30.0 mg/kg/injection, schedule: Q01DX005 (ip), vehicle: saline with Tween-80
[14] = dose: 15.0 mg/kg/injection, schedule: Q01DX005 (ip), vehicle: saline with Tween-80

Measured: T/C

O=CNc1c(Nc2ccccc2)nc(-c2ccccc2)[nH]c1=O
inactive: dose: 15.0 mg/kg/injection, schedule: Q01DX009 (ip), vehicle: saline with Tween-80 105 % of control | dose: 30.0 mg/kg/injection, schedule: Q01DX009 (ip), vehicle: saline with Tween-80 91 % of control | dose: 60.0 mg/kg/injection, schedule: Q01DX009 (ip), vehicle: saline with Tween-80 91 % of control

Cc1ccc(S(=O)(=O)C(Cl)(SCl)Sc2ccccc2)cc1 (configuration not stated)
inactive: [1] 95 % of control | [2] 93 % of control | [3] 93 % of control

CCOC(=O)Nc1cc2c(c(N)n1)N=C(c1ccc(C)cc1)CN2
inactive: dose: 1.0 mg/kg/injection, schedule: Q01DX005 (ip), vehicle: saline with Tween-80 109 % of control | dose: 3.0 mg/kg/injection, schedule: Q01DX005 (ip), vehicle: saline with Tween-80 109 % of control | dose: 6.0 mg/kg/injection, schedule: Q01DX005 (ip), vehicle: saline with Tween-80 121 % of control

COc1cc2cc(-c3ccc(Cl)c(Cl)c3)[n+](C)cc2cc1OC
inactive: dose: 12.5 mg/kg/injection, schedule: Q01DX009 (ip), vehicle: saline 106 % of control | dose: 25.0 mg/kg/injection, schedule: Q01DX009 (ip), vehicle: saline 94 % of control | [4] 98 % of control

CCOC(=O)C(CC(C)C)NC(=O)c1cnc2ccccc2c1 (configuration not stated)
inactive: [5] 104 % of control | [6] 103 % of control | [7] 99 % of control

CC1NC(C)c2c(ccc3ccccc23)O1 (configuration not stated)
inactive: [8] 100 % of control | [9] 100 % of control | [10] 97 % of control

O=C(CCC(=O)Nc1ccc(Cl)cc1Cl)CC(=O)c1ccco1
inactive: [5] 102 % of control | [6] 105 % of control | [7] 102 % of control

O=C1NC(=O)N2CC(CI)OC2C1c1ccccc1 (configuration not stated)
inactive: [1] 103 % of control | [2] 98 % of control | [3] 100 % of control

COc1ccc2c(c1O)C1=CC(O)CCC13CCN(C)C3C2 (configuration not stated)
inactive: dose: 100.0 mg/kg/injection, schedule: Q04DX002 (ip), vehicle: suspension in saline 100 % of control | dose: 200.0 mg/kg/injection, schedule: Q04DX002 (ip), vehicle: suspension in saline 96 % of control | dose: 400.0 mg/kg/injection, schedule: Q04DX002 (ip), vehicle: suspension in saline 103 % of control

O=C1NCCCN1C(=O)Nc1ccc(Cl)c(Cl)c1
inactive: [1] 101 % of control | [2] 91 % of control | [3] 95 % of control

O=C(O)c1cc2cc3c(cc2c2ccccc12)OCO3
inactive: [11] 100 % of control | [12] 106 % of control | dose: 200.0 mg/kg/injection, schedule: Q01DX005 (ip), vehicle: Klucel (hydroxypropylcellulose) (HPC) 108 % of control

O=[N+](N=c1ccn([O-])cc1)c1cc[n+]([O-])cc1
inactive: dose: 1.56 mg/kg/injection, schedule: Q01DX009 (ip), vehicle: DMSO 107 % of control | dose: 3.0 mg/kg/injection, schedule: Q01DX009 (ip), vehicle: other 107 % of control | dose: 3.12 mg/kg/injection, schedule: Q01DX009 (ip), vehicle: DMSO 100 % of control | dose: 6.0 mg/kg/injection, schedule: Q01DX009 (ip), vehicle: other 102 % of control | dose: 6.25 mg/kg/injection, schedule: Q01DX009 (ip), vehicle: DMSO 107 % of control | dose: 12.5 mg/kg/injection, schedule: Q01DX009 (ip), vehicle: DMSO 100 % of control | dose: 12.5 mg/kg/injection, schedule: Q01DX009 (ip), vehicle: other 98 % of control | dose: 25.0 mg/kg/injection, schedule: Q01DX009 (ip), vehicle: DMSO 100 % of control | dose: 25.0 mg/kg/injection, schedule: Q01DX009 (ip), vehicle: other 109 % of control | dose: 50.0 mg/kg/injection, schedule: Q01DX009 (ip), vehicle: other 109 % of control

O=C1CCCCC12CCCC2
inactive: dose: 87.5 mg/kg/injection, schedule: Q01DX001 (ip), vehicle: saline sonified 100 % of control | dose: 175.0 mg/kg/injection, schedule: Q01DX001 (ip), vehicle: saline sonified 100 % of control | dose: 250.0 mg/kg/injection, schedule: Q01DX001 (ip), vehicle: saline sonified 105 % of control

COc1ccc(C)cc1NC(=O)/N=C1/NC(=O)CS1
inactive: [4] 91 % of control | dose: 100.0 mg/kg/injection, schedule: Q01DX009 (ip), vehicle: saline 97 % of control | dose: 200.0 mg/kg/injection, schedule: Q01DX009 (ip), vehicle: saline 91 % of control

CCCOc1cc2c(cc1C(C)c1ccc(OCC)c(C)c1)OCO2 (configuration not stated)
inactive: [13] 100 % of control | [5] 103 % of control | [6] 106 % of control | [7] 116 % of control

O=C(O)C(S(=O)(=O)O)S(=O)(=O)O
inactive: dose: 1.56 mg/kg/injection, schedule: Q01DX001 (ip), vehicle: saline with Tween-80 103 % of control | dose: 3.13 mg/kg/injection, schedule: Q01DX001 (ip), vehicle: saline with Tween-80 100 % of control | dose: 6.25 mg/kg/injection, schedule: Q01DX001 (ip), vehicle: saline with Tween-80 100 % of control

OC1C=C2CCN3Cc4cc5c(cc4C(C1O)C23)OCO5 (configuration not stated)
inactive: dose: 8.75 mg/kg/injection, schedule: Q01DX009 (ip), vehicle: Klucel (hydroxypropylcellulose) (HPC) 96 % of control | dose: 17.5 mg/kg/injection, schedule: Q01DX009 (ip), vehicle: Klucel (hydroxypropylcellulose) (HPC) 96 % of control | dose: 35.0 mg/kg/injection, schedule: Q01DX009 (ip), vehicle: Klucel (hydroxypropylcellulose) (HPC) 106 % of control | dose: 70.0 mg/kg/injection, schedule: Q01DX009 (ip), vehicle: Klucel (hydroxypropylcellulose) (HPC) 109 % of control

CS(C)(=O)=Nc1ccc(Br)cc1
inactive: dose: 100.0 mg/kg/injection, schedule: Q04DX002 (ip), vehicle: saline with Tween-80 98 % of control | dose: 200.0 mg/kg/injection, schedule: Q04DX002 (ip), vehicle: saline with Tween-80 98 % of control | dose: 400.0 mg/kg/injection, schedule: Q04DX002 (ip), vehicle: saline with Tween-80 103 % of control

Nc1ncnc2cc3cn[nH]c3cc12
inactive: dose: 12.5 mg/kg/injection, schedule: Q01DX005 (ip), vehicle: saline with Tween-80 96 % of control | dose: 25.0 mg/kg/injection, schedule: Q01DX005 (ip), vehicle: saline with Tween-80 95 % of control | [8] 94 % of control and 97 % of control | [9] 91 % of control | [10] 100 % of control

CN1c2ccccc2S(=O)(=O)n2c(CCc3ccccc3)nnc21
inactive: [14] 103 % of control | [13] 100 % of control | [5] 87 % of control and 97 % of control | [7] 90 % of control

Cc1ccccc1C1N(Cc2ccccc2)C(=S)C1(C(C)C)C(C)(C)C (configuration not stated)
inactive: dose: 100.0 mg/kg/injection, schedule: Q01DX001 (ip), vehicle: saline with Tween-80 102 % of control | dose: 200.0 mg/kg/injection, schedule: Q01DX001 (ip), vehicle: saline with Tween-80 92 % of control | dose: 400.0 mg/kg/injection, schedule: Q01DX001 (ip), vehicle: saline with Tween-80 94 % of control

Cc1ccc(NC(=O)Oc2ccc(C#N)cc2)c(C)c1
inactive: [5] 92 % of control | [6] 95 % of control | [7] 101 % of control

Cc1nc2cc3c(=O)n(C)cnc3cc2n1Cc1ccccc1
inactive: dose: 12.5 mg/kg/injection, schedule: Q04DX002 (ip), vehicle: Klucel (hydroxypropylcellulose) (HPC) 104 % of control | dose: 25.0 mg/kg/injection, schedule: Q04DX002 (ip), vehicle: Klucel (hydroxypropylcellulose) (HPC) 104 % of control | dose: 50.0 mg/kg/injection, schedule: Q04DX002 (ip), vehicle: Klucel (hydroxypropylcellulose) (HPC) 107 % of control

O=C1OC(=O)C2=C1C1c3ccccc3C2c2ccccc21
inactive: dose: 12.5 mg/kg/injection, schedule: Q01DX005 (ip), vehicle: Klucel (hydroxypropylcellulose) (HPC) 100 % of control | dose: 25.0 mg/kg/injection, schedule: Q01DX005 (ip), vehicle: Klucel (hydroxypropylcellulose) (HPC) 109 % of control | [11] 108 % of control and 110 % of control | [12] 106 % of control

CCOC(=O)c1c(O)c(Cc2ccccc2)c(=O)n2c1[nH]c1cc(C)c(C)cc12
inactive: dose: 7.5 mg/kg/injection, schedule: Q01DX005 (ip), vehicle: saline with Tween-80 100 % of control | [14] 100 % of control
